The text below walks through data of paper PMC5031577, “Preclinical evaluation of [^68Ga]NOTA-pentixafor for PET imaging of CXCR4 expression in vivo — a comparison to [^68Ga]pentixafor” (EJNMMI Research, 2016).

Series [1] is described as follows: Determination of tracer lipophilicity (logP). Format: physicochemical. The settings on record: determined as published (method ref 22). How it is done:
General procedures and syntheses of the peptides are described in a recently reported protocol. Determination of tracer lipophilicity and serum stability as well as in vitro studies were performed as recently published. ^68Ga-labeling of peptides was performed as described using a fully automated system (Scintomics GmbH); briefly, the ^68Ge/^68Ga generator eluate fractions (1.25 mL) were reacted with 5 nmol of peptide. The mixture was buffered with 0.6 mL HEPES (pH = 7.4) to a final pH of 3–4 and heated to 95 °C for 5 min. After purification via one Sep-Pak C8 light cartridge, the ethanolic product fraction was diluted with PBS and used as such for the experiments.

Series [2] is described as follows: Biodistribution in Daudi lymphoma xenograft bearing SCID mice. Format: in vivo, mouse. Particulars: female, CB-17 SCID, mouse, iv, total radioactivity, mean ± SD. The procedure: (§1) For PET (n = 3) and biodistribution studies (n = 5), an average of 15.2 MBq [^68Ga]NOTA-pentixafor (100 μL in PBS, 145 pmol, 171 ng) with a specific activity (AS) of 104 GBq/μmol was injected intravenously into the tail vein of isofluorane anesthesized female Daudi lymphoma-bearing SCID mice. […] After static PET imaging for 15 min (Inveon Siemens μPET scanner), the mice were sacrificed (90 min p.i.), and tissues and organs of interest were dissected, weighed, and counted for radioactivity in a γ-counter. The percentage of injected dose per gram of tissue (% ID/g) was calculated; data are shown as mean ± SD.

A short description of series [3]: Metabolite analysis of mouse plasma after i.v. injection. Format: in vivo. The settings on record: CB17 SCID mouse, 50 MBq i.v., plasma at 60 min p.i., RP-HPLC with γ-counter. The procedure:
All animal studies were conducted in accordance with the German Animal Welfare Act (Deutsches Tierschutzgesetz, approval No. 55.2-1-54-2532-71-13). For metabolite analysis, 50 MBq of [^68Ga]NOTA-pentixafor in a total volume of 200 μL of PBS was injected into the tail vein of a CB17 SCID mouse; the animal was sacrificed at 1 h p.i. and blood was collected. After sample preparation, as described in [24], the plasma samples were analyzed by reversed phase (RP)-HPLC and eluate fractions were analyzed using a γ-counter.

For series [4], the system named is Daudi xenograft bearing CB-17 SCID mice. The series is described as follows: Biodistribution in Daudi lymphoma xenograft bearing SCID mice. In kind it is in vivo, mouse. The settings on record: tracer only, i.v., 1.5 h p.i., mean ± SD. How it is done:
as §1

Details of series [5]: method as in PMID 22045709. The settings on record: at 30 min p.i.; cited from earlier work.
The subject of another series is CXCR4. Particulars: Jurkat T cells, [^125I]FC131 radioligand; natGa-complexed peptides and metal-free precursors; determined previously; cited from earlier work. An excerpt: Table 1 Comparison of the lipophilicity and the in vitro CXCR4 targeting characteristics of [^68Ga]NOTA-pentixafor and [^68Ga]pentixafor | column: IC50 (nM)
Where [6] appears, read: adrenals, 15.2 MBq, tracer only, i.v., 1.5 h p.i., read-out: Adrenals uptake.
Where [7] appears, read: heart, 15.2 MBq, tracer only, i.v., 1.5 h p.i., read-out: Heart uptake.
Setting [8] is: intestine, 15.2 MBq, tracer only, i.v., 1.5 h p.i., read-out: Intestine uptake.
[9] abbreviates: kidney, 15.2 MBq, tracer only, i.v., 1.5 h p.i., read-out: Kidney uptake.
[10] abbreviates: liver, 15.2 MBq, tracer only, i.v., 1.5 h p.i., read-out: Liver uptake.
[11] abbreviates: lung, 15.2 MBq, tracer only, i.v., 1.5 h p.i., read-out: Lung uptake.
[12] abbreviates: muscle, 15.2 MBq, tracer only, i.v., 1.5 h p.i., read-out: Muscle uptake.
[13] abbreviates: pancreas, 15.2 MBq, tracer only, i.v., 1.5 h p.i., read-out: Pancreas uptake.
Setting [14] is: spleen, 15.2 MBq, tracer only, i.v., 1.5 h p.i., read-out: Spleen uptake.
Setting [15] is: stomach, 15.2 MBq, tracer only, i.v., 1.5 h p.i., read-out: Stomach uptake.

Like-named read-outs stand apart in the source and are kept apart here. Square brackets hold non-standard residues; d marks the D form. Side chains are listed from the residue outwards. Peptide text beside a SMILES is read from it. * marks the point of attachment. DOTA = O=C(O)CN1CCN(CC(=O)O)CCN(CC(=O)*)CCN(CC(=O)O)CC1; NOTA = O=C(O)CN1CCN(CC(=O)O)CCN(CC(=O)*)CC1; 2Nal = N[C@@H](Cc1ccc2ccccc2c1)C(=O)O; dNMeOrn = CN[C@H](CCCN)C(=O)O; 4Amb = NCc1ccc(C(=O)O)cc1

Turning to `CN1C(=O)[C@@H](Cc2ccc(O)cc2)NC(=O)CNC(=O)[C@H](Cc2ccc3ccccc3c2)NC(=O)[C@H](CCCNC(=N)N)NC(=O)[C@H]1CCCNC(=O)c1ccc(CNC(=O)CN2CCN(CC(=O)O)CCN(CC(=O)O)CC2)cc1` [[^68Ga]NOTA-pentixafor, metal not drawn] (cyclo([2Nal]G[dY][dNMeOrn]([4Amb-NOTA])R)), in series [1], the logP is listed as −2.36. In addition, the tissue uptake at 1.5 h came out at 0.52 ± 0.3 %ID/g in series [2] (setting [6]); 0.48 ± 0.15 %ID/g in series [2] (adrenals, co-injection of 50 μg AMD3100, n = 3, 1.5 h p.i., read-out: Adrenals uptake); 0.65 ± 0.41 %ID/g in series [2] (blood, 15.2 MBq, tracer only, i.v., 1.5 h p.i., read-out: Blood uptake); 0.62 ± 0.26 %ID/g in series [2] (blood, co-injection of 50 μg AMD3100, n = 3, 1.5 h p.i., read-out: Blood uptake); 0.25 ± 0.18 %ID/g in series [2] (bone, 15.2 MBq, tracer only, i.v., 1.5 h p.i., read-out: Bone uptake); 0.16 ± 0.07 %ID/g in series [2] (bone, co-injection of 50 μg AMD3100, n = 3, 1.5 h p.i., read-out: Bone uptake). The tissue uptake at 1.5 h turned out to be 3.61 ± 3 %ID/g in series [2] (gallbladder, 15.2 MBq, tracer only, i.v., 1.5 h p.i., read-out: Gallbladder uptake); 5.14 ± 2.24 %ID/g in series [2] (gallbladder, co-injection of 50 μg AMD3100, n = 3, 1.5 h p.i., read-out: Gallbladder uptake); 0.34 ± 0.19 %ID/g in series [2] (setting [7]); 0.36 ± 0.14 %ID/g in series [2] (heart, co-injection of 50 μg AMD3100, n = 3, 1.5 h p.i., read-out: Heart uptake); 1.89 ± 0.83 %ID/g in series [2] (setting [8]); 3.97 ± 0.92 %ID/g in series [2] (intestine, co-injection of 50 μg AMD3100, n = 3, 1.5 h p.i., read-out: Intestine uptake). Moreover, the tissue uptake at 1.5 h in series [2] (setting [9]) turned out to be 2.71 ± 1.06 %ID/g; in series [2] (kidney, co-injection of 50 μg AMD3100, n = 3, 1.5 h p.i., read-out: Kidney uptake), 3.56 ± 1.03 %ID/g; in series [2] (setting [10]) it was 2.3 ± 0.88 %ID/g; in series [2] (liver, co-injection of 50 μg AMD3100, n = 3, 1.5 h p.i., read-out: Liver uptake), 2.02 ± 0.76 %ID/g; in series [2] (setting [11]) it was 0.73 ± 0.25 %ID/g; in series [2] (lung, co-injection of 50 μg AMD3100, n = 3, 1.5 h p.i., read-out: Lung uptake) it was 0.95 ± 0.38 %ID/g. The tissue uptake at 1.5 h in series [2] (setting [12]) is 0.13 ± 0.1 %ID/g; in series [2] (muscle, co-injection of 50 μg AMD3100, n = 3, 1.5 h p.i., read-out: Muscle uptake), 0.13 ± 0.05 %ID/g; in series [2] (setting [13]), 0.12 ± 0.05 %ID/g; in series [2] (pancreas, co-injection of 50 μg AMD3100, n = 3, 1.5 h p.i., read-out: Pancreas uptake), 0.16 ± 0.05 %ID/g; in series [2] (setting [14]), 0.44 ± 0.22 %ID/g; in series [2] (spleen, co-injection of 50 μg AMD3100, n = 3, 1.5 h p.i., read-out: Spleen uptake), 0.54 ± 0.19 %ID/g. For the same compound, the tissue uptake at 1.5 h in series [2] (setting [15]) is 0.45 ± 0.21 %ID/g; in series [2] (stomach, co-injection of 50 μg AMD3100, n = 3, 1.5 h p.i., read-out: Stomach uptake), 0.58 ± 0.24 %ID/g. In addition, the “radiometabolites in mouse plasma (metabolic stability)” value in series [3] is listed as “complete absence of radiometabolites”.

`CN1C(=O)[C@@H](Cc2ccc(O)cc2)NC(=O)CNC(=O)[C@H](Cc2ccc3ccccc3c2)NC(=O)[C@H](CCCNC(=N)N)NC(=O)[C@H]1CCCNC(=O)c1ccc(CNC(=O)CN2CCN(CC(=O)O)CCN(CC(=O)O)CCN(CC(=O)O)CC2)cc1` [[^68Ga]pentixafor, metal not drawn] (cyclo([dY][dNMeOrn]([4Amb-DOTA])R[2Nal]G)): in series [1], the logP is −2.90. The tissue uptake at 1.5 h in series [2] (setting [6]) is 3.68 ± 0.72 %ID/g; in series [2] (setting [7]) it was 0.58 ± 0.17 %ID/g; in series [2] (setting [8]) it was 0.7 ± 0.2 %ID/g; in series [2] (setting [9]), 1.65 ± 0.91 %ID/g; in series [2] (setting [10]) it was 2.05 ± 0.27 %ID/g; in series [2] (setting [11]) it was 1.32 ± 0.29 %ID/g. For the same compound, the tissue uptake at 1.5 h in series [2] (setting [12]) is 0.19 ± 0.06 %ID/g; in series [2] (setting [13]), 1.06 ± 0.22 %ID/g; in series [2] (setting [14]) it was 0.3 ± 0.1 %ID/g; in series [2] (setting [15]) it was 0.48 ± 0.08 %ID/g. In addition, in series [4], the Intestine uptake was found to be 0.67 ± 0.21 % ID/g. Moreover, the “radiometabolites in mouse plasma (metabolic stability)” value in series [5] is on record as “complete absence of radiometabolites”.

Take Pentixafor: the IC50 in the series on CXCR4 was 102 ± 17 nM.
